Data from patent publication US12459974B2, “Bicyclic peptide ligands specific for Nectin-4” (priority 2018, dated 2025).
*1 amine or outer side, *2 acyl side, *3 side chain or, on linkers, in order; H or OH if unused. Where a SMILES comes first, the peptide text is derived from it. Bridges are numbered along the chain shown (N, C = ends). Roman numbers before positions name the chains, in order. [ ]: non-standard residue; d: D form. The star is where a group is joined. ξ: configuration not given here. TATA = O=C(CC[*:1])N1CN(C(=O)CC[*:2])CN(C(=O)CC[*:3])C1; Dolaproine = CO[C@@H]([C@@H]1CCCN1)[C@@H](C)C(=O)O; X1 = CC[C@H](C)C(C(CC(=O)[*:2])OC)N(C)[*:1]; 1Nal = N[C@@H](Cc1cccc2ccccc12)C(=O)O; X3 = O=C(CCCC(=O)[*:2])NCCC(=O)[*:1]; PABC = O=C(OCc1ccc(N[*:1])cc1)[*:2]; Hyp = O=C(O)[C@@H]1C[C@@H](O)CN1; hArg = N=C(N)NCCCC[C@H](N)C(=O)O; Cit = NC(=O)NCCC[C@H](N)C(=O)O; X2 = CC(N*)[C@@H](O)c1ccccc1; ξNMeV = CNC(C(=O)O)C(C)C; ξV = CC(C)C(N)C(=O)O; Sar = CNCC(=O)O

How the values were obtained:
[1] = tested on: HT-1376 xenograft; test: Example 9.3: in vivo efficacy in HT-1376 xenograft in CB17-SCID mice; parameters: species or system Mus Musculus; details: for TGI / Tumor volume (TV) / Tumor volume / T/C: day 14; for Tumor volume trace over time: mean; for Tumor volume: mean ± SEM; for T/C: treated/control group average tumor volume
[2] = tested on: MDA-MB-468 xenograft; test: Example 9.9: in vivo efficacy of BCY8245 alone or with BCY8234 in MDA-MB-468 xenograft (large tumors) in Balb/c nude mice; parameters: species or system Mus Musculus
[3] = 3 mg/kg qw in combination with BCY8234 300 mg/kg qw, day 28

CC[C@H](C)C(C(CC(=O)N1CCC[C@H]1[C@H](OC)[C@@H](C)C(=O)NC(C)[C@@H](O)c1ccccc1)OC)N(C)C(=O)[C@@H](NC(=O)C(C(C)C)N(C)C(=O)OCc1ccc(NC(=O)[C@H](CCCNC(N)=O)NC(=O)C(NC(=O)CCCC(=O)NCCC(=O)N(C)CC(=O)N(C)CC(=O)N(C)CC(=O)N(C)CC(=O)N(C)CC(=O)N(C)CC(=O)N(C)CC(=O)N(C)CC(=O)N(C)CC(=O)N(C)CC(=O)N[C@H]2CSCCC(=O)N3CN4CN(C3)C(=O)CCSC[C@H](NC(=O)[C@@H](CC(=O)O)NC(=O)[C@H](Cc3cccc5ccccc35)NC(=O)[C@@H]3CCCN3C2=O)C(=O)N[C@@H](CCSC)C(=O)N[C@@H](CCCCNC(=N)N)C(=O)N[C@@H](CC(=O)O)C(=O)N[C@@H](Cc2c[nH]c3ccccc23)C(=O)N[C@@H](CO)C(=O)N[C@@H]([C@@H](C)O)C(=O)N2CCC[C@H]2C(=O)N2C[C@H](O)C[C@H]2C(=O)N[C@@H](Cc2c[nH]c3ccccc23)C(=O)N[C@H](C(N)=O)CSCCC4=O)C(C)C)cc1)C(C)C (stereo partly drawn) [BCY8245, MMAE-PABC-Cit-Val-Glutaryl-BCY8234] (I: [Sar][Sar][Sar][Sar][Sar][Sar][Sar][Sar][Sar][Sar]CP[1Nal][dD]CM[hArg]DWSTP[Hyp]WC-NH2 / II: [ξV][Cit][PABC][ξNMeV]V[X1][Dolaproine]-X2; linker I:11-I:15-I:25 via TATA; linker I:N-II:N via X3)
TGI ([1]; 3 mg/kg biw): 72.3%
Tumor volume (TV) ([1]; 3 mg/kg biw): 407 mm^3
TGI ([1]; 3 mg/kg qw): 50.9%
Tumor volume (TV) ([1]; 3 mg/kg qw): 603 mm^3
TGI ([1]; 5 mg/kg qw): 66.0%
Tumor volume (TV) ([1]; 5 mg/kg qw): 465 mm^3
Tumor volume trace over time ([1]; 3 mpk, biw, iv, day 0 after the start of treatment): 154 mm^3
Tumor volume trace over time ([1]; 3 mpk, biw, iv, day 2 after the start of treatment): 248 mm^3
Tumor volume trace over time ([1]; 3 mpk, biw, iv, day 5 after the start of treatment): 203 mm^3
Tumor volume trace over time ([1]; 3 mpk, biw, iv, day 7 after the start of treatment): 273 mm^3
Tumor volume trace over time ([1]; 3 mpk, biw, iv, day 9 after the start of treatment): 356 mm^3
Tumor volume trace over time ([1]; 3 mpk, biw, iv, day 12 after the start of treatment): 391 mm^3
TGI ([1]; 3 mpk, biw, iv): 72.3%
Tumor volume ([1]; 3 mpk, biw, iv): 407 ± 53 mm^3
T/C ([1]; 3 mpk, biw, iv): 38.1%
Tumor volume trace over time ([1]; 3 mpk, biw, iv, day 14 after the start of treatment): 407 mm^3
Tumor volume trace over time ([1]; 3 mpk, qw, iv, day 0 after the start of treatment): 153 mm^3
Tumor volume trace over time ([1]; 3 mpk, qw, iv, day 2 after the start of treatment): 254 mm^3
Tumor volume trace over time ([1]; 3 mpk, qw, iv, day 5 after the start of treatment): 298 mm^3
Tumor volume trace over time ([1]; 3 mpk, qw, iv, day 7 after the start of treatment): 398 mm^3
Tumor volume trace over time ([1]; 3 mpk, qw, iv, day 9 after the start of treatment): 468 mm^3
Tumor volume trace over time ([1]; 3 mpk, qw, iv, day 12 after the start of treatment): 502 mm^3
TGI ([1]; 3 mpk, qw, iv): 50.9%
Tumor volume ([1]; 3 mpk, qw, iv): 603 ± 76 mm^3
T/C ([1]; 3 mpk, qw, iv): 56.4%
Tumor volume trace over time ([1]; 3 mpk, qw, iv, day 14 after the start of treatment): 603 mm^3
Tumor volume trace over time ([1]; 5 mpk, qw, iv, day 0 after the start of treatment): 153 mm^3
Tumor volume trace over time ([1]; 5 mpk, qw, iv, day 2 after the start of treatment): 237 mm^3
Tumor volume trace over time ([1]; 5 mpk, qw, iv, day 5 after the start of treatment): 228 mm^3
Tumor volume trace over time ([1]; 5 mpk, qw, iv, day 7 after the start of treatment): 317 mm^3
Tumor volume trace over time ([1]; 5 mpk, qw, iv, day 9 after the start of treatment): 394 mm^3
Tumor volume trace over time ([1]; 5 mpk, qw, iv, day 12 after the start of treatment): 438 mm^3
TGI ([1]; 5 mpk, qw, iv): 66.0%
Tumor volume ([1]; 5 mpk, qw, iv): 465 ± 33 mm^3
T/C ([1]; 5 mpk, qw, iv): 43.5%
Tumor volume trace over time ([1]; 5 mpk, qw, iv, day 14 after the start of treatment): 465 mm^3
TGI ([2]; 1 mg/kg qw, day 28): 126.6%
Tumor volume (TV) ([2]; 1 mg/kg qw, day 28): 384 mm^3
TGI [2, 3]: 234.0%
Tumor volume (TV) [2, 3]: 55 mm^3
tumor relapse (in words) ([2]; 3 mg/kg qw in combination with BCY8234 300 mg/kg qw, whole monitoring schedule): didn't showed any relapse
tumor relapse (in words) ([2]; 3 mg/kg qw, after ceasing the treatment): some tumor relapse
TGI ([2]; 3 mg/kg qw, day 28): 234.6%
Tumor volume (TV) ([2]; 3 mg/kg qw, day 28): 50 mm^3
Tumor volume ([2]; 1 mpk, qw, day 0 after the start of treatment): 466 mm^3
Tumor volume ([2]; 1 mpk, qw, day 2): 480 mm^3
Tumor volume ([2]; 1 mpk, qw, day 5): 453 mm^3
Tumor volume ([2]; 1 mpk, qw, day 7): 474 mm^3
Tumor volume ([2]; 1 mpk, qw, day 9): 446 mm^3
Tumor volume ([2]; 1 mpk, qw, day 12): 461 mm^3
Tumor volume ([2]; 1 mpk, qw, day 14): 460 mm^3
Tumor volume ([2]; 1 mpk, qw, day 16): 433 mm^3
Tumor volume ([2]; 1 mpk, qw, day 19): 412 mm^3
Tumor volume ([2]; 1 mpk, qw, day 21): 430 mm^3
Tumor volume ([2]; 1 mpk, qw, day 23): 421 mm^3
Tumor volume ([2]; 1 mpk, qw, day 26): 382 mm^3
T/C ([2]; 1 mpk, qw, day 28): 49.7%
TGI ([2]; 1 mpk, qw, day 28): 126.6%
Tumor volume ([2]; 1 mpk, qw, day 28): 384 mm^3
